{"source": "patent US20240238459A1", "about": "“Granzyme-Activatable Membrane-Interacting Peptides and Methods of Use” (priority 2021, published 2024)", "key": {"recombinant human GZMB": {"target": "recombinant human GZMB (Homo sapiens, UniProt P10144)", "sequence (P10144 21-247)": "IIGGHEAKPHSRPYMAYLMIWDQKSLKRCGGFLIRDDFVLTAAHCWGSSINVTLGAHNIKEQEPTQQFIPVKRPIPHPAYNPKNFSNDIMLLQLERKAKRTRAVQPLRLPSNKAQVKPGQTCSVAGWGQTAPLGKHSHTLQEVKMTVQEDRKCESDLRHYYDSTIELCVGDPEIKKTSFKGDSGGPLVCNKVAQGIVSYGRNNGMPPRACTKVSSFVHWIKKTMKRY", "assay": "Cleavage of GRIP B / ^64Cu-GRIP B by recombinant human GZMB (rad-HPLC)", "format": "biochemical", "details": "incubation with recombinant human GZMB (400 nM per FIG. 2D legend); product comigrated with cold cleaved DOTA-peptide fragment"}, "EMT6": {"test_system": "EMT6", "assay": "Biodistribution in mice bearing EMT6 tumors treated with vehicle or CPI", "format": "in vivo, mouse", "details": "EMT6 cohort", "protocol": "Next, the biodistribution of ^64Cu-GRIP B and ^64Cu-D-GRIP B was compared in mice bearing MC38 (mouse colorectal cancer) or EMT6 (mouse mammary breast carcinoma) xenografts. The mice were treated with vehicle or anti-PD1 and anti-CTLA4 CPIs following the schema used for the CT26 cohort."}, "CT26 tumors": {"test_system": "CT26 tumors", "assay": "Biodistribution in germline GZMB knockout mice bearing CT26 tumors, vehicle or CPI", "format": "in vivo, mouse", "protocol": "Lastly, to confirm that GZMB is responsible for post treatment changes in ^64Cu-GRIP B biodistribution, germline homozygous GZMB knockout mice were inoculated with CT26 tumors and the relative biodistribution of ^64Cu-L-GRIP B in mice was assessed after treatment with vehicle or CPIs.\nTo confirm this, post treatment changes in tumoral uptake of ^64Cu-GRIP B were assessed for correlation with antitumor effects."}, "secreted GZMB": {"target": "T1, secreted GZMB (Mus musculus, UniProt P04187)", "T1 construct": "from tissue; host or cells: live wild type mice; lungs and other organs after intratracheal LPS", "T1 sequence (P04187 21-247)": "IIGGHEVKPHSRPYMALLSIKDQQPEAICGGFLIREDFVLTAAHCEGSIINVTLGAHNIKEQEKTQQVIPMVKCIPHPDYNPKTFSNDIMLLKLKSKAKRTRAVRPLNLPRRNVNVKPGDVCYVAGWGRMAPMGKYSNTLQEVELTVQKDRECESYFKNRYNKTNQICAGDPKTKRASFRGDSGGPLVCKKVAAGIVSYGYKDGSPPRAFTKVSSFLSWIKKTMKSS", "assay": "PET/CT and biodistribution after intratracheal LPS instillation", "format": "in vivo", "protocol": "Though not well defined, non-cytotoxic functions for secreted GZMB have been proposed in several physiological processes, for example inflammation. To test if ^64Cu-GRIP B can localize potentially pathogenic reservoirs of secreted GZMB due to inflammation, ^64Cu-GRIP B PET/CT was performed on wild type mice that had received intratracheal instillations of lipopolysaccharide (LPS). PET/CT was performed four days after the instillation, a time point at which T cell recruitment to the lungs has occurred. […] Since 3 mg/kg LPS can trigger systemwide T cell activation, radiotracer uptake was examined in a larger panel of mouse organs. […] Remarkably, the systemwide impact on T cell activation due to the intratracheal instillation of LPS was also visually obvious by comparing maximum intensity projections between treatment arms (FIG. 6, panel E)."}, "RAJI tumors": {"test_system": "RAJI tumors", "assay": "PET/CT in mice bearing RAJI xenografts given anti-CD19 CAR T cells", "format": "in vivo, mouse", "protocol": "Mice bearing subcutaneous RAJI xenografts and administered anti-CD19 CAR T cells were imaged using ^64Cu-GRIP B PET/CT. Peripheral blood mononuclear cells were obtained from normal blood donor leukoreduction filters (Vitalant Blood Services). CD4+ and CD8+ T-cells were isolated via magnetic bead selection, activated with anti-CD3/CD28 beads, lentivirally transduced with a validated anti-CD19 CAR construct, and expanded in vitro with IL-2. In parallel, mice were injected with 1e6 Raji cells subcutaneously in the right flank. At tumor size of ˜400 mm3 5e6 CAR-expressing T-cells were implanted IV into each mouse. Mice received anti-CD19 CAR T cells or empty CAR Ts. After 6 days, the mice received ^64Cu-GRIP B (˜300 uCi/mouse) and were imaged from 0-4 hours post injection. The data depicted in FIG. 7 show images and region of interest analysis gathered at 4 hours post injection.\nAdditionally, mice bearing orthotopic RAJI xenografts and treated with activated CAR T cell based therapy were imaged using ^64Cu-GRIP B PET/CT. Raji cells (1e5) were administered orthotopically via tail vein injection to encourage seeding in abdominal tissues. This model was evaluated as subcutaneous Raji tumors are known to be intrinsically immunosuppressive.\nPeripheral blood mononuclear cells were obtained from normal blood donor leukoreduction filters (Vitalant Blood Services). […]"}, "E. coli": {"test_system": "E. coli", "assay": "PET in E. coli myositis model (live vs heat killed, vs LPS)", "format": "in vivo, mouse", "protocol": "^64Cu-GRIP B was also tested to determine whether it can detect granzyme B secreted from activated immune cells attempting to combat bacterial infections. A cohort of mice bearing bilateral deltoid implants of live E. coli or heat killed E. coli was established to test the kinetics of tracer uptake (FIG. 10).\nNext, the granzyme B responses to live E. coli versus treatment with a bolus of the endotoxin LPS were compared. Three to four hours after implantation, mice received ^64Cu-GRIP B and were imaged serially (FIG. 12)."}, "P. aeruginosa": {"test_system": "P. aeruginosa", "assay": "PET in P. aeruginosa myositis model", "format": "in vivo, mouse", "source_text": "Performing additional myositis studies with other bacterial strains yielded unexpected and variable granzyme “responses” on PET. […] In both mouse cohorts, radiotracer uptake in the treated muscles was higher than in the normal muscle."}, "M. marinum": {"test_system": "M. marinum", "assay": "PET in M. marinum myositis model", "format": "in vivo, mouse", "source_text": "(§1) Neither M. marinum nor the L. monoctyogenes induced ^64Cu-GRIP B uptake in live bacterial abscesses compared to heat killed controls."}, "L. monoctyogenes": {"test_system": "L. monoctyogenes", "assay": "PET in L. monoctyogenes myositis model", "format": "in vivo, mouse", "source_text": "as §1"}, "virus": {"test_system": "virus", "assay": "PET and biodistribution in viral pneumonia model", "details": "biodistribution; including spleen, liver and blood pool", "quoted_text": "In collaboration with the Looney lab at UCSF, mice received an intranasal instillation of virus or sham, and were imaged with ^64Cu-GRIP B at 10 days post infection (the time point at which peak recruitment of T cells to the lungs occurs)."}}, "note": "Peptide text beside a SMILES is read from it. * marks the point of attachment. DOTA = O=C(O)CN1CCN(CC(=O)O)CCN(CC(=O)*)CCN(CC(=O)O)CC1; Ahx = NCCCCCC(=O)O", "data": [{"smiles": "CC[C@H](C)[C@H](NC(=O)[C@H](CCCCN)NC(=O)CNC(=O)[C@H](CC(C)C)NC(=O)[C@H](Cc1ccccc1)NC(=O)[C@H](CCCCN)NC(=O)[C@H](CO)NC(=O)[C@H](Cc1ccccc1)NC(=O)[C@H](Cc1c[nH]c2ccccc12)NC(=O)[C@H](CCC(N)=O)NC(=O)[C@@H](NC(=O)[C@H](Cc1ccccc1)NC(=O)CCCCCNC(=O)CN1CCN(CC(=O)O)CCN(CC(=O)O)CCN(CC(=O)O)CC1)C(C)C)C(=O)N[C@@H](CCC(=O)O)C(=O)N1CCC[C@H]1C(=O)N[C@@H](CC(=O)O)C(=O)N[C@H](C(=O)N[C@@H](CO)C(=O)N[C@@H](CCC(N)=O)C(=O)N[C@H](C(=O)N[C@@H](CCC(N)=O)C(=O)N[C@@H](CC(=O)O)C(=O)N1CCC[C@H]1C(=O)N[C@@H](CC(N)=O)C(=O)N[C@@H](CC(=O)O)C(=O)N[C@@H](CCC(N)=O)C(=O)N[C@@H](Cc1ccc(O)cc1)C(=O)N[C@@H](CCC(=O)O)C(=O)N1CCC[C@H]1C(=O)N[C@@H](Cc1ccccc1)C(=O)O)C(C)C)C(C)C", "note": "[^64Cu-GRIP B, metal not drawn] ({DOTA-Ahx}-FVQWFSKFLGKIEPDVSQVQDPNDQYEPF-OH)", "values": [{"measurement": "time to conversion to one radiolabeled product", "setting": "recombinant human GZMB", "value": "≤ 30", "unit": "min"}, {"measurement": "tumoral uptake after CPI compared to controls", "setting": "EMT6", "value": "significant increase"}, {"measurement": "correlation of tumoral uptake or tumor to blood ratio with percent changes in tumor volume", "setting": "CT26 tumors; GZMB knockout mouse background", "value": "neither tumoral uptake nor tumor to blood ratio of ^64Cu-GRIP B correlated"}, {"measurement": "post treatment changes in radiotracer uptake in tumors and spleen, CPI compared to vehicle", "setting": "CT26 tumors; germline homozygous GZMB knockout mice, CT26 tumors", "value": "No significant post treatment changes"}, {"measurement": "autoradiography of the lungs, LPS treated", "setting": "secreted GZMB; co-localized with GZMB and CD3 staining", "value": "visually higher radiotracer binding"}, {"measurement": "ex vivo biodistribution, LPS treated versus vehicle mice", "setting": "secreted GZMB; either dose, including spleen and thymus", "value": "significantly higher in numerous tissues"}, {"measurement": "radiotracer accumulation in the lungs, LPS compared to vehicle", "setting": "secreted GZMB; low (0.1 mg/kg) and high (3 mg/kg) doses of LPS, four days after instillation, ROI analysis", "value": "significantly higher"}, {"measurement": "uptake in tumor bearing livers", "setting": "RAJI tumors; orthotopic RAJI tumors in liver, CD19 CAR Ts, ROI and post mortem dosimetry", "value": "induce ^64Cu-GRIP B uptake in tumor bearing livers"}, {"measurement": "detection of granzyme B production from activated CAR T cells", "setting": "RAJI tumors; subcutaneous and orthotopic RAJI, anti-CD19 CAR T vs empty CAR Ts, 4 hours post injection", "value": "can detect granzyme B production from activated CAR T cells"}, {"measurement": "uptake in live abscess compared to site of heat killed bacterial implantation", "setting": "E. coli; E. coli, bilateral deltoid implants", "value": "significantly higher"}, {"measurement": "time course of tracer uptake in the myositis lesion", "setting": "E. coli; live E. coli deltoid implant", "value": "increased out to 5 hours and persisted to at least 24 hours post injection"}, {"measurement": "radiotracer uptake, live E. coli abscess versus bolus of LPS", "setting": "E. coli; tracer three to four hours after implantation, serial imaging", "value": "differences in radiotracer uptake were detected from 6-24 hours post injection"}, {"measurement": "uptake in treated muscles versus normal muscle", "setting": "P. aeruginosa", "value": "higher"}, {"measurement": "uptake in live bacterial infection versus contralateral heat killed bacteria", "setting": "P. aeruginosa; deltoid muscles", "value": "higher"}, {"measurement": "radiotracer uptake compared to normal muscle", "setting": "M. marinum", "value": "significant increase"}, {"measurement": "uptake in live bacterial abscesses compared to heat killed controls", "setting": "M. marinum", "value": "did not impact"}, {"measurement": "radiotracer uptake compared to normal muscle", "setting": "L. monoctyogenes", "value": "significant increase"}, {"measurement": "uptake in live bacterial abscesses compared to heat killed controls", "setting": "L. monoctyogenes", "value": "did not impact"}, {"measurement": "normal tissue biodistribution", "setting": "biodistribution out to 24 hours post injection", "value": "highest level of tissue-associated activity in the kidney and liver"}, {"measurement": "dominant mode of clearance", "setting": "intravenous, C57B16/J mice, dynamic PET", "value": "renal"}, {"measurement": "relative radiotracer uptake per organ, viral infection", "setting": "virus", "value": "higher radiotracer uptake in numerous tissues"}]}]}
